As usually defined, the Kd is the concentration at which binding is half-saturated.

Structures are written as SMILES. The source made the active and inactive calls.

Kd data for 23 compounds are collected here from ChEMBL document CHEMBL3991601, “The target landscape of clinical kinase drugs” (Science, 2017).

Assay [1] concerns the target cAMP-dependent protein kinase catalytic subunit gamma (Homo sapiens, UniProt P22612).
Assay [2] deals with Guanine nucleotide-binding protein G(i) subunit alpha-2 (Homo sapiens, UniProt P04899).
Guanine nucleotide-binding protein G(i) subunit alpha-2, sequence (P04899 whole entry): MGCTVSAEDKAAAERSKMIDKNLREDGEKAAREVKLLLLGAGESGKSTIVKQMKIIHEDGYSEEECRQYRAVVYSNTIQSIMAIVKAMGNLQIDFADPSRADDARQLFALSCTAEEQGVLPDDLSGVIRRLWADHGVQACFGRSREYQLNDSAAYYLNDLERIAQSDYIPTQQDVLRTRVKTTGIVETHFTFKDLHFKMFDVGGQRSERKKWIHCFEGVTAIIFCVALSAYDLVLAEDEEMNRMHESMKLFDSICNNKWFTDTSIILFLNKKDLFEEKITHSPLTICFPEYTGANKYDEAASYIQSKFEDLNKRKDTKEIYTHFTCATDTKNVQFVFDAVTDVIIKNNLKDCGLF
The target of a further assay is T1, Ephrin type-B receptor 2 (Homo sapiens, UniProt P29323).
T1 sequence (P29323 whole entry): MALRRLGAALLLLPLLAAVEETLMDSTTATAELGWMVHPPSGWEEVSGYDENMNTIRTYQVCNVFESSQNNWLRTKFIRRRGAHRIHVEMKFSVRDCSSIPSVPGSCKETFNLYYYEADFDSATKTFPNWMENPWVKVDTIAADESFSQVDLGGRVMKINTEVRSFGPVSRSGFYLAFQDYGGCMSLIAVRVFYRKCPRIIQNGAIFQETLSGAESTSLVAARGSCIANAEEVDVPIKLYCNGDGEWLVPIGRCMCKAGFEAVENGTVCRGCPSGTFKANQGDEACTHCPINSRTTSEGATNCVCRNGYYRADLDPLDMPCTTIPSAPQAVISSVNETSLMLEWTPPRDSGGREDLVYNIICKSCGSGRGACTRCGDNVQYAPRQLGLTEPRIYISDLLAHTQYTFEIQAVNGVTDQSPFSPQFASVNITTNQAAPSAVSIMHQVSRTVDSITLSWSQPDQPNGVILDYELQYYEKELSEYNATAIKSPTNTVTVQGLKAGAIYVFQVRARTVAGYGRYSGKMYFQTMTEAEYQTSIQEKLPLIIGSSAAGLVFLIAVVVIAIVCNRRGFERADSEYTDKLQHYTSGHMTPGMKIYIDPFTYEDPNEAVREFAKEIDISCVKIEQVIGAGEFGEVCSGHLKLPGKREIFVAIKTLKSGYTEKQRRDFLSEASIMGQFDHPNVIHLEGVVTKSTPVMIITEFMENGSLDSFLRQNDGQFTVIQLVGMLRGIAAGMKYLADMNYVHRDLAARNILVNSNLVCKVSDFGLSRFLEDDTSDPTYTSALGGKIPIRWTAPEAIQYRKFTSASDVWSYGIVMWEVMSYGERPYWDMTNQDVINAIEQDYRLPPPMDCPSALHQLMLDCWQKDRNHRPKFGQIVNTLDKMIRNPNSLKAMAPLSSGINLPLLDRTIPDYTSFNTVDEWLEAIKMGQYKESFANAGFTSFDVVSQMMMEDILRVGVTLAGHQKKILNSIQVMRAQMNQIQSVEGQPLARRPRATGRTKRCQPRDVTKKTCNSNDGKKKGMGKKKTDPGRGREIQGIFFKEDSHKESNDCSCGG

Assay [3] concerns the target Protein kinase C delta type (Homo sapiens, UniProt Q05655).
In assay [4] the target is T2, ATP-dependent RNA helicase DDX42 (Homo sapiens, UniProt Q86XP3).
T2 sequence (Q86XP3 whole entry): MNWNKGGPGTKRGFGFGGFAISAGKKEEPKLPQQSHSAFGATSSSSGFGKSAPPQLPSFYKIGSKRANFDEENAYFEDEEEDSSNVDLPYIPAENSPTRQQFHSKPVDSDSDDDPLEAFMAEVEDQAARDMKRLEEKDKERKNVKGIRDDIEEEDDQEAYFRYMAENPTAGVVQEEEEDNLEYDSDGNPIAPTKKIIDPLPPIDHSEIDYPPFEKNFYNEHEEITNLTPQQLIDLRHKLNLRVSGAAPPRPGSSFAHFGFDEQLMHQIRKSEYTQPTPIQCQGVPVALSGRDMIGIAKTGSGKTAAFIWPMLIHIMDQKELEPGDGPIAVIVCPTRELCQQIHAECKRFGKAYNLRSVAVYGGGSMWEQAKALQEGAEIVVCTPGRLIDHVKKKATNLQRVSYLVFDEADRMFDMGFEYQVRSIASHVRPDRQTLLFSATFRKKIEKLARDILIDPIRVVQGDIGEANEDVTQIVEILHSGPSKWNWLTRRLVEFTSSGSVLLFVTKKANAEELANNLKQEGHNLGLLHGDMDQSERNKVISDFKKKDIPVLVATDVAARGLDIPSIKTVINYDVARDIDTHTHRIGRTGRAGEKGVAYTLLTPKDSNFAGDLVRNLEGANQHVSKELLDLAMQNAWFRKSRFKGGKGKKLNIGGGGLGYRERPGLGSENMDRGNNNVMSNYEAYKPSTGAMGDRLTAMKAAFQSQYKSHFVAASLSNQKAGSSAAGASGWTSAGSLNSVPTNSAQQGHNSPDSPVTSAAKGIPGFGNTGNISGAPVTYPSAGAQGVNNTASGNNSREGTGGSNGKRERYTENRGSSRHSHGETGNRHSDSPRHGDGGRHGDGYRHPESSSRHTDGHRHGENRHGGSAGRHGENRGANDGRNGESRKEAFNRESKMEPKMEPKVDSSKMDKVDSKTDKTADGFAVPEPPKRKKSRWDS
Also: in the data inactive means no Kd found up to 30 µM.

cAMP-dependent protein kinase catalytic subunit gamma, sequence (P22612 whole entry): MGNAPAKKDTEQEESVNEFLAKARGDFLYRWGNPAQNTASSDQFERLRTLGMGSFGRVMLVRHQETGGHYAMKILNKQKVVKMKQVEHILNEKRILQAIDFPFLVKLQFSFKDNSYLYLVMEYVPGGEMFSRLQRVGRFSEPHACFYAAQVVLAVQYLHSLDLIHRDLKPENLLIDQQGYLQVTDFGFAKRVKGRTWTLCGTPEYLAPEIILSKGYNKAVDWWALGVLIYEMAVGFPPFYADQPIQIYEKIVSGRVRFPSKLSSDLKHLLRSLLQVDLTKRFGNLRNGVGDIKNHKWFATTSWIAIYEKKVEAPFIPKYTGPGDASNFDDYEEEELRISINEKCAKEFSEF
Protein kinase C delta type, sequence (Q05655 whole entry): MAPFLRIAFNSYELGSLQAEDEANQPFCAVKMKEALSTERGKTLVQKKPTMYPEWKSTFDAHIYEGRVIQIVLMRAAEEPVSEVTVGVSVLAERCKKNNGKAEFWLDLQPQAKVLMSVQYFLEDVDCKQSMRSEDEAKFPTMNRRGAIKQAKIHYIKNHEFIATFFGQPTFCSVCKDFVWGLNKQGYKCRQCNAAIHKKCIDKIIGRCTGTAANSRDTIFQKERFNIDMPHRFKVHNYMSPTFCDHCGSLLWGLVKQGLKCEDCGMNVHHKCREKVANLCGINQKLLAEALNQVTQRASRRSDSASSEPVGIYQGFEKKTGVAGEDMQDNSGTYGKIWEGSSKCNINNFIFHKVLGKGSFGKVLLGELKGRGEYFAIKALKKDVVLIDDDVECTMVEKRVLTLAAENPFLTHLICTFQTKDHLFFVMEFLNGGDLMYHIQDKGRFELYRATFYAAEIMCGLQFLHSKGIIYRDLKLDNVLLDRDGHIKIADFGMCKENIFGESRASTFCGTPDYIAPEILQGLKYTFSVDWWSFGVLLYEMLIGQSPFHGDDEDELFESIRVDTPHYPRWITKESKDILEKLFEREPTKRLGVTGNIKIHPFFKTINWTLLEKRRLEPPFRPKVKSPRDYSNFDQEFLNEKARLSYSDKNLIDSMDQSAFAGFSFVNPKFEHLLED

Take `C[C@@H](Oc1cc(C(=O)Nc2ccc(C(=O)N3CCN(C)CC3)cc2)nnc1N)c1c(Cl)ccc(F)c1Cl`: the Kd (in assay [1]; in assay [2]; on Ephrin type-B receptor 2; in assay [3]; in assay [4]) was > 30 µM (inactive) in each case.
Turning to `C[C@H]1CNCCCN1S(=O)(=O)c1cccc2cncc(F)c12`, the Kd in assay [1] is > 30 µM (inactive); in assay [2], > 30 µM (inactive); at Ephrin type-B receptor 2 it was > 30 µM (inactive); in assay [3] it was 2.47 µM (active); in assay [4] it was > 30 µM (inactive).
For the compound `CCNC(=O)C#Cc1ccc2c(c1)NC(=O)/C2=C(\Nc1ccc(CN(C)C)cc1)c1ccccc1`, the Kd (in assay [1]; in assay [2]; on Ephrin type-B receptor 2; in assay [3]; in assay [4]) was > 30 µM (inactive) in each case.
On to `Cc1nc2cc(-c3nn(C(C)C)c4ncnc(N)c34)ccc2o1`, for which the Kd (in assay [2]; at Ephrin type-B receptor 2; in assay [3]; in assay [4]) was > 30 µM (inactive) each time.
For `Nc1ncnc2c1c(-c1cccc(OCc3ccccc3)c1)cn2[C@H]1C[C@@H](CN2CCC2)C1` [AEW-541], the Kd (in assay [1]; in assay [2]; at Ephrin type-B receptor 2; in assay [3]; in assay [4]) was > 30 µM (inactive) throughout.
For `COc1cc(Nc2ncc3c(n2)-c2ccc(Cl)cc2C(c2c(F)cccc2OC)=NC3)ccc1C(=O)O` [ALISERTIB], the Kd in assay [1] is > 30 µM (inactive); in assay [2] it was 0.184 µM; at Ephrin type-B receptor 2, > 30 µM (inactive); in assay [4], > 30 µM (inactive).
Regarding `Cc1nc(NC(=O)N2CCC[C@H]2C(N)=O)sc1-c1ccnc(C(C)(C)C(F)(F)F)c1` [ALPELISIB], the Kd is 1.99 µM (active) in assay [1], > 30 µM (inactive) in assay [2], > 30 µM (inactive) on Ephrin type-B receptor 2 and > 30 µM (inactive) in assay [3].
As for `Cc1csc(-c2nnc(Nc3ccc(Oc4ncccc4-c4ccnc(N)n4)cc3)c3ccccc23)c1` [AMG-900], the Kd was > 30 µM (inactive) in assay [1]; > 30 µM (inactive) in assay [2]; > 30 µM (inactive) at Ephrin type-B receptor 2; 1.09 µM (active) in assay [3]; > 30 µM (inactive) in assay [4].
For `O=C(Nc1c[nH]nc1-c1nc2cc(CN3CCOCC3)ccc2[nH]1)NC1CC1` [AT-9283], the Kd was 0.003 µM (active) in assay [1]; > 30 µM (inactive) in assay [2]; > 30 µM (inactive) at Ephrin type-B receptor 2; > 30 µM (inactive) in assay [3]; > 30 µM (inactive) in assay [4].
Turning to `C=CC(=O)Nc1cc2c(Nc3ccc(F)c(Cl)c3)ncnc2cc1C#CC(C)(C)N1CCN(C)CC1` [AV-412 FREE BASE], the Kd (in assay [1]; in assay [2]; at Ephrin type-B receptor 2; in assay [3]; in assay [4]) was > 30 µM (inactive) in each case.
In the case of `COc1cc([C@@H]2c3cc4c(cc3[C@H](O)[C@H]3COC(=O)[C@@H]23)OCO4)cc(OC)c1OC` [AXL-1717], the Kd (in assay [1]; in assay [2]; at Ephrin type-B receptor 2; in assay [3]; in assay [4]) was > 30 µM (inactive) throughout.
Turning to `NC(=O)Nc1cc(-c2cccc(F)c2)sc1C(=O)N[C@H]1CCCNC1` [AZD-7762], the Kd in assay [1] was > 30 µM (inactive); in assay [2], > 30 µM (inactive); on Ephrin type-B receptor 2 it was > 30 µM (inactive); in assay [3], 0.928 µM.
For `Cn1cnc2c(F)c(Nc3ccc(Br)cc3F)c(C(=O)NOCCO)cc21` [BINIMETINIB], the Kd (in assay [1]; in assay [2]; on Ephrin type-B receptor 2; in assay [3]; in assay [4]) was > 30 µM (inactive) in each case.
Regarding `COc1cc2ncnc(Oc3cccc(NC(=O)Nc4cc(C(C)(C)C(F)(F)F)on4)c3)c2cc1OC` [CEP-32496], the Kd (in assay [2]; on Ephrin type-B receptor 2; in assay [3]; in assay [4]) was > 30 µM (inactive) each time.
Take `Cc1cc(Nc2ncc(Cl)c(Nc3ccccc3S(=O)(=O)C(C)C)n2)c(OC(C)C)cc1C1CCNCC1` [CERITINIB]: the Kd (in assay [1]; in assay [2]; at Ephrin type-B receptor 2; in assay [3]; in assay [4]) was > 30 µM (inactive) throughout.
In the case of `COc1c(OCCCN2CCOCC2)ccc2c1N=C(NC(=O)c1cnc(N)nc1)N1CCN=C21` [COPANLISIB], the Kd (in assay [1]; in assay [2]; at Ephrin type-B receptor 2; in assay [3]; in assay [4]) was > 30 µM (inactive) each time.
Turning to `COCC(=O)NC/C=C/c1ccc2ncnc(Nc3ccc(Oc4ccc(C)nc4)c(C)c3)c2c1` [CP-724714], the Kd (in assay [1]; in assay [2]; on Ephrin type-B receptor 2; in assay [3]; in assay [4]) was > 30 µM (inactive) in each case.
With `C#Cc1cccc(Nc2ncnc3cc(OC)c(OCCCCCCC(=O)NO)cc23)c1` [CUDC-101], the Kd (in assay [1]; in assay [2]; on Ephrin type-B receptor 2; in assay [3]; in assay [4]) was > 30 µM (inactive) in each case.
Take `COc1ccc(S(=O)(=O)N(C(C)=O)c2ccccc2/C=C/c2cc[n+]([O-])cc2)cc1` [HMN-214]: the Kd (in assay [1]; in assay [2]; on Ephrin type-B receptor 2; in assay [3]) was > 30 µM (inactive) in each case.
Consider `O=C(Nc1cc(C(F)(F)F)cc(C(F)(F)F)c1)c1cc(Cl)ccc1O` [IMD-0354], for which the Kd (in assay [1]; in assay [2]; on Ephrin type-B receptor 2; in assay [4]) was > 30 µM (inactive) throughout.
Consider `FC(F)(F)c1ccc(/C=C/c2nc(COc3ccc(CCCCn4ccnn4)cc3)co2)cc1` [MUBRITINIB], for which the Kd (in assay [1]; in assay [2]; on Ephrin type-B receptor 2; in assay [3]) was > 30 µM (inactive) throughout.
For `O=C(NOCCO)c1cc(CN2OCCCC2=O)c(F)c(F)c1Nc1ccc(I)cc1F` [RO-4987655], the Kd in assay [1], in assay [2] and in assay [4] was > 30 µM (inactive) throughout.
Regarding `O=C1NC(=O)[C@@H](c2cn3c4c(cccc24)CCC3)[C@@H]1c1c[nH]c2ccccc12` [TIVANTINIB], the Kd (in assay [2]; at Ephrin type-B receptor 2; in assay [3]; in assay [4]) was > 30 µM (inactive) throughout.
